The structures appear in SMILES notation. pIC50: −log10 of the molar value.

Sequence of Factor D (P00746 26-253): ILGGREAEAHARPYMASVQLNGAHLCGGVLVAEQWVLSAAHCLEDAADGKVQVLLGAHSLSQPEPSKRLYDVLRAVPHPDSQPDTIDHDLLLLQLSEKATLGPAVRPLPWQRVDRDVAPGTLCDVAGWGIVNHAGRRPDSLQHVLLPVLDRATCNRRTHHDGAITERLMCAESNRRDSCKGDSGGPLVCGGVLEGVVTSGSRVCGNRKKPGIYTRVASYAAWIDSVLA

The target of the assay is Factor D (Homo sapiens, UniProt P00746). The assay is described as follows: Factor D esterolytic assay (Z-Lys-SBzl thioester substrate, DTNB, 405 nm). The conditions noted are these: substrate Z-Lys-SBzl 1.29 mM, 100 mM HEPES, 500 mM NaCl, pH 7.5, 10% DMSO, tested a minimum of three times. It counts as biochemical. In a few lines:
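Run in pH 7.5 HEPES (100 mM) with 500 mM NaCl and 10% DMSO, with compound preincubated at room temperature or not before adding 1.29 mM Z-Lys-SBzl. Free thiol released by Factor D reacts with DTNB, and rate is followed at 405 nm minus 690 nm over 600 s. IC50 derives from rate-based inhibition, minimum three replicates.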
As a reminder, the pIC50 is the IC50 on a negative log10 scale, so that one unit is a factor of ten. For the molecule `Cc1cc(-c2cccnc2C(F)(F)F)cc2c3c(N)ncnc3n(CC(=O)N3[C@H](C(=O)Nc4cccc(Br)n4)C[C@@]4(C)C[C@@H]34)c12` [Compound 358c, (1R,3S,5R)-2-(2-(4-amino-8-methyl-6-(2-(trifluoromethyl)pyridin-3-yl)-9H-pyrimido[4,5-b]indol-9-yl)acetyl)-N-(6-bromopyridin-2-yl)-5-methyl-2-azabicyclo[3.1.0]hexane-3-carboxamide], the pIC50 was 6.00 to 7.00.
Next, `Cc1cc(C2CC2)cc2c3c(N)ncnc3n(CC(=O)N3[C@H](C(=O)Nc4cccc(Br)n4)C[C@@]4(C)C[C@@H]34)c12` [Compound 361a, (1R,3S,5R)-2-(2-(4-amino-6-cyclopropyl-8-methyl-9H-pyrimido[4,5-b]indol-9-yl)acetyl)-N-(6-bromopyridin-2-yl)-5-methyl-2-azabicyclo[3.1.0]hexane-3-carboxamide]: more than 7.00; `Cc1nc(C(F)(F)F)cc2c3c(N)ncnc3n(CC(=O)N3[C@H](C(=O)Nc4cccc(Br)n4)C[C@@]4(C)C[C@@H]34)c12` [Compound 347a, (1R,3S,5R)-2-(2-(4-amino-8-methyl-6-(trifluoromethyl)-9H-pyrido[4′,3′:4,5]pyrrolo[2,3-d]pyrimidin-9-yl)acetyl)-N-(6-bromopyridin-2-yl)-5-methyl-2-azabicyclo[3.1.0]hexane-3-carboxamide]: more than 7.00; `Cc1cccc2c1c1c(N)ncnc1n2CC(=O)N1[C@H](C(=O)Nc2cccc(Br)n2)C[C@@]2(C)C[C@@H]12` [Compound 176a, (1R,3S,5R)-2-(2-(4-amino-5-methyl-9H-pyrimido[4,5-b]indol-9-yl)acetyl)-N-(6-bromopyridin-2-yl)-5-methyl-2-azabicyclo[3.1.0]hexane-3-carboxamide]: 6.00 to 7.00.
For the molecule `C[C@@]12C[C@@H](C(=O)Nc3cccc(Br)n3)N(C(=O)Cn3c4ccc(-c5ccncc5)nc4c4c(N)ncnc43)[C@@H]1C2` [Compound 373a, (1R,3S,5R)-2-(2-(4-amino-6-(pyridin-4-yl)-9H-pyrido[2′,3′:4,5]pyrrolo[2,3-d]pyrimidin-9-yl)acetyl)-N-(6-bromopyridin-2-yl)-5-methyl-2-azabicyclo[3.1.0]hexane-3-carboxamide], the pIC50 was 6.00 to 7.00.
On to `Nc1ncnc2c1c1cc(C(F)(F)F)ccc1n2CC(=O)N1CC2(CC2)C[C@H]1C(=O)Nc1cccc(Br)n1` [Compound 53d, (S)-5-(2-(4-amino-6-(trifluoromethyl)-9H-pyrimido[4,5-b]indol-9-yl)acetyl)-N-(6-bromopyridin-2-yl)-5-azaspiro[2.4]heptane-6-carboxamide], for which the pIC50 is 6.00 to 7.00.
Next, `Nc1ncnc2c1c(F)cn2CC(=O)N1C[C@H](F)C[C@H]1C(=O)NCc1cccc(Cl)c1F` [Compound 125d, (2S,4R)-1-(2-(4-amino-5-fluoro-7H-pyrrolo[2,3-d]pyrimidin-7-yl)acetyl)-N-(3-chloro-2-fluorobenzyl)-4-fluoropyrrolidine-2-carboxamide]: 6.00 to 7.00.
Turning to `Cc1ccc(Br)nc1NC(=O)[C@@H]1C[C@H]2C[C@H]2N1C(=O)Cn1c2ccccc2c2c(N)ncnc21` [Compound 1e, (1R,3S,5R)-2-(2-(4-amino-9H-pyrimido[4,5-b]indol-9-yl)acetyl)-N-(6-bromo-3-methylpyridin-2-yl)-2-azabicyclo[3.1.0]hexane-3-carboxamide], the pIC50 is more than 7.00.
Next, `Nc1nc(Cl)nc2c1ccn2CC(=O)N1[C@@H]2C[C@@H]2C[C@H]1C(=O)Nc1cccc(Br)n1` [Compound 90d, (1R,3S,5R)-2-(2-(4-amino-2-chloro-7H-pyrrolo[2,3-d]pyrimidin-7-yl)acetyl)-N-(6-bromopyridin-2-yl)-2-azabicyclo[3.1.0]hexane-3-carboxamide]: less than 6.00; `NC(=O)c1ccc2c(c1)c1c(N)ncnc1n2CC(=O)N1[C@@H]2C[C@@H]2C[C@H]1C(=O)Nc1cccc(Br)n1` [Compound 60c, 4-amino-9-(2-((1R,3S,5R)-3-((6-bromopyridin-2-yl)carbamoyl)-2-azabicyclo[3.1.0]hexan-2-yl)-2-oxoethyl)-9H-pyrimido[4,5-b]indole-6-carboxamide]: more than 7.00; `Cc1cc(O)cc2c3c(N)ncnc3n(CC(=O)N3[C@H](C(=O)Nc4cccc(Br)n4)C[C@@]4(C)C[C@@H]34)c12` [Compound 265a, (1R,3S,5R)-2-(2-(4-amino-6-hydroxy-8-methyl-9H-pyrimido[4,5-b]indol-9-yl)acetyl)-N-(6-bromopyridin-2-yl)-5-methyl-2-azabicyclo[3.1.0]hexane-3-carboxamide]: more than 7.00.
To `Nc1cn(CC(=O)N2[C@@H]3C[C@@H]3C[C@H]2C(=O)Nc2cccc(Br)n2)c2ncncc12` [Compound 129f, (1R,3S,5R)-2-(2-(5-amino-7H-pyrrolo[2,3-d]pyrimidin-7-yl)acetyl)-N-(6-bromopyridin-2-yl)-2-azabicyclo[3.1.0]hexane-3-carboxamide] belongs 6.00 to 7.00.
Take `Cc1cc(C(F)(F)F)cc2c3c(N)ncnc3n(CC(=O)N3[C@@H]4C[C@@H]4C[C@H]3C(=O)Nc3nc(Cl)ccc3F)c12` [Compound 319c, (1R,3S,5R)-2-(2-(4-amino-8-methyl-6-(trifluoromethyl)-9H-pyrimido[4,5-b]indol-9-yl)acetyl)-N-(6-chloro-3-fluoropyridin-2-yl)-2-azabicyclo[3.1.0]hexane-3-carboxamide]: the pIC50 was more than 7.00.
Next, `Cc1cc(C(F)(F)F)cc2c3c(N)ncnc3n(CC(=O)N3[C@H](C(=O)Nc4cncc(Br)n4)C[C@@]4(C)C[C@@H]34)c12` [Compound 296a, (1R,3S,5R)-2-(2-(4-amino-8-methyl-6-(trifluoromethyl)-9H-pyrimido[4,5-b]indol-9-yl)acetyl)-N-(6-bromopyrazin-2-yl)-5-methyl-2-azabicyclo[3.1.0]hexane-3-carboxamide]: more than 7.00.
Next, `C[C@@]12C[C@@H](C(=O)Nc3cccc(Br)n3)N(C(=O)Cn3c4ncnc(N)c4c4cccc(C(=O)O)c43)[C@@H]1C2` [Compound 232a, 4-amino-9-(2-((1R,3S,5R)-3-((6-bromopyridin-2-yl)carbamoyl)-5-methyl-2-azabicyclo[3.1.0]hexan-2-yl)-2-oxoethyl)-9H-pyrimido[4,5-b]indole-8-carboxylic acid]: more than 7.00.
To `COC(=O)c1cc(OC)c2c(c1)c1c(N)ncnc1n2CC(=O)N1[C@H](C(=O)Nc2cccc(Br)n2)C[C@@]2(C)C[C@@H]12` [Compound 241a, methyl 4-amino-9-(2-((1R,3S,5R)-3-((6-bromopyridin-2-yl)carbamoyl)-5-methyl-2-azabicyclo[3.1.0]hexan-2-yl)-2-oxoethyl)-8-methoxy-9H-pyrimido[4,5-b]indole-6-carboxylate] belongs more than 7.00; to `Nc1ncnc2c1c(-c1ccc3[nH]ccc3c1)cn2CC(=O)N1C[C@H](F)C[C@H]1C(=O)NCc1cccc(Cl)c1F` [Compound 139b, (2S,4R)-1-(2-(4-amino-5-(1H-indol-5-yl)-7H-pyrrolo[2,3-d]pyrimidin-7-yl)acetyl)-N-(3-chloro-2-fluorobenzyl)-4-fluoropyrrolidine-2-carboxamide], more than 7.00; to `N#C[C@@H]1C[C@@H](C(=O)Nc2cccc(Br)n2)N(C(=O)Cn2c3ccc(C(F)(F)F)cc3c3c(N)ncnc32)C1` [Compound 178d, (2S,4R)-1-(2-(4-amino-6-(trifluoromethyl)-9H-pyrimido[4,5-b]indol-9-yl)acetyl)-N-(6-bromopyridin-2-yl)-4-cyanopyrrolidine-2-carboxamide], 6.00 to 7.00.

For the origin of these results see patent publication US12679843B2, “Pyrrolopyrimidine amines as complement inhibitors” (BioCryst Pharmaceuticals, Inc., priority 2020, dated 2026).
